US20240115557A1, “INHIBITORS OF RNA-GUIDED NUCLEASES AND USES THEREOF” (The Brigham and Women's Hospital, Inc., priority 2022, published 2024)

Target: SpCas9 (Streptococcus pyogenes serotype M1, UniProt Q99ZW2)
Assay: In vitro DNA cleavage assay, SpCas9
Assay type: biochemical
Settings: 0-40 μM
Method: First, Cas9:gRNA complex (30 nM Cas9 (NEB) and 36 nM eGFP targeting gRNA) was formed by mixing each component at a 1:1.2 (Cas9:gRNA) molar ratio and incubating at room temperature for 10 minutes. BRD7586 at doses 0, 5, 10, 20, 30, 40 μM were incubated with Cas9:gRNA complex at 37° C. for 30 minutes at 700 rpm. PCR amplified target eGFP DNA (2 nM) was added after 30 minutes of compound incubation and the mixture was incubated at 37° C. for 30 minutes at 700 rpm. Proteinase K (5 μL) was added and incubated at 37° C. for 30 minutes at 700 rpm to digest the Cas9. The resulting mixtures were purified PCR mini elute kit (Qiagen) and the eluted DNA was quantified by Qubit HS DNA quantification method. Equal amounts of DNA samples were run on a 1% agarose E-gels (invitrogen) for 7 minutes. Images were obtained by an Azure 600 (Azure Biosystem) and quantification of band intensities were performed by ImageJ based analysis.

Sequence of SpCas9 (Q99ZW2 whole entry): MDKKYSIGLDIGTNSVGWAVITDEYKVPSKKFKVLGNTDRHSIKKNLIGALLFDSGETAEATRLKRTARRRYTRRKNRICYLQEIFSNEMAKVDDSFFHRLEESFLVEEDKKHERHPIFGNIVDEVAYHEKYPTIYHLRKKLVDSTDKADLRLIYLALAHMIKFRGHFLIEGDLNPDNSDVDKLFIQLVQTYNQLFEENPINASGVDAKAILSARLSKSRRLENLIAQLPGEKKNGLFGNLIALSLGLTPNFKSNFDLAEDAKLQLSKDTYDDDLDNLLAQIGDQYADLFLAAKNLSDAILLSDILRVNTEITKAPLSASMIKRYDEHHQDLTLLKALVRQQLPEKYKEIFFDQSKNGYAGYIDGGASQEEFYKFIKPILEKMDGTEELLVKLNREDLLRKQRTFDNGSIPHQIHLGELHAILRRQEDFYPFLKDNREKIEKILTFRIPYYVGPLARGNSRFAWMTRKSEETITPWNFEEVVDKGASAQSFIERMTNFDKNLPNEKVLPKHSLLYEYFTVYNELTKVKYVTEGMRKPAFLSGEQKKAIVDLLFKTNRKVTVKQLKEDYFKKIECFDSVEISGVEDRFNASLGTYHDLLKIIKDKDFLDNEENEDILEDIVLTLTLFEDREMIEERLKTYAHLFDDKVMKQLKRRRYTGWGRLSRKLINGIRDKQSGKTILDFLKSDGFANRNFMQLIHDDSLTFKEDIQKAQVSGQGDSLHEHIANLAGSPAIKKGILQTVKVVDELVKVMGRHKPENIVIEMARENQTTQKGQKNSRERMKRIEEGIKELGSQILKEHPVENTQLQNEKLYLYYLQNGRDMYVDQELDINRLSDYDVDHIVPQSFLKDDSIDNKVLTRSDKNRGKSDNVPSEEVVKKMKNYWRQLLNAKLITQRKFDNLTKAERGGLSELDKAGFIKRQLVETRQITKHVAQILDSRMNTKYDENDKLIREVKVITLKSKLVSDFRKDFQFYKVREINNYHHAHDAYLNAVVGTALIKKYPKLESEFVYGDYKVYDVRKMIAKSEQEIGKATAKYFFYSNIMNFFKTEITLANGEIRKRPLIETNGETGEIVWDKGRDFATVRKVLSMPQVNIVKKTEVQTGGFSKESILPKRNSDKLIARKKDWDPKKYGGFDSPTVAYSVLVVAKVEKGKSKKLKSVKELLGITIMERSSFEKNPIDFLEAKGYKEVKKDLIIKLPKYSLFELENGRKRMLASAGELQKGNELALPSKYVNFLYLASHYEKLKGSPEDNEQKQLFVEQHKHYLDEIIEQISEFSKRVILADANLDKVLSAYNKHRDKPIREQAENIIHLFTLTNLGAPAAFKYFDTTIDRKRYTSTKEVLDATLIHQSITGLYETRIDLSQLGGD

## O=C(CCS(=O)(=O)c1ccc(Cl)cc1)Nc1nc(-c2ccncc2)cs1 [BRD7586]
  Inhibition of SpCas9 in in vitro DNA cleavage assay: dose-dependent inhibition
